We go through two compounds from PMC5814585, “Modulators of actin-myosin dissociation: basis for muscle type functional differences during fatigue” (American Journal of Physiology - Cell Physiology, 2017).

For experiment [1], the system named is actin.PsoS1 (rabbit psoas myosin S1 bound to pyrene-actin). In words: ATP-induced dissociation of pyr.actin.S1, stopped flow, pyrene fluorescence (fast, psoas). Type of experiment: biochemical. Conditions: for kobs of ATP-induced dissociation: 25 µM ATP; for activation energy (Ea) of K1k+2: Pso. As for the experimental part:
(§1) Myosin was prepared from the rabbit psoas (for fast MyHC-II) and the bovine masseter muscle (for slow MyHC-I) according to Margossian and Lowey ([41]), and was subsequently digested to subfragment 1 (S1) with chymotrypsin as described by Weeds and Taylor ([57]) which removes the regulatory light chain region.
(§2) Actin was prepared from rabbit muscle as described by Spudich & Watt ([52]) and labeled with pyrene iodoacetamide to give pyrene-labeled actin as described by Criddle et al. ([15]). Protein stocks of S1 and of pyrene-labeled actin were stored at 4°C and were used for up to 2 wk. In the text herein, reference to actin implies pyrene-labeled actin.
(§3) Stopped-flow experiments were performed essentially as described previously ([4]) using a HiTech Scientific SF-61DX2 stopped-flow system; 4–5 transients were acquired for each ATP transient (Kinetic Studio suite). The dead time of the equipment was 0.002 s. A wide temperature range (5–45°C) for measurements was available because of a new adaptation of the standard stopped-flow machine [see Ref. [56]). Briefly, the samples were held at room temperature (20°C) and then passed through a heat exchanger, at the temperature required for the measurement, just before entering the mixing chamber/observation chamber of the stopped flow. The samples were only exposed to the temperature of the measurement for a few seconds, thus allowing measurements of proteins under conditions where they are not usually stable for long.
The ATP-induced dissociation rate of actin.S1 was measured in the stopped flow by mixing a fixed concentration of pyr.actin.S1 complex (end concentration 0.25 µM) with excess ATP and monitoring fluorescence transients from the pyrene-labeled actin [excitation at 365 nm, emission through a KV389 nm cutoff filter (Schott, Mainz, Germany)]. Details of the kinetic analysis are given under Data Fitting and Interpretation Approach.
(§4) The averaged transients were fitted with a single (Eqn 1) or, if needed, a double exponential equation (Eqn 2):(1)) Ft=ΔF·e^(^−kobs·t)+F∞ or(2)) Ft=ΔF(1)·e^(^−kobs(1)·t)+ΔF(2)·e^(^−kobs(2)·t)+F∞ where Ft is the observed fluorescence at time t, F∞ is the fluorescence at the end of the transient (t = ∞) and ΔF is the total change of fluorescence observed. […] A plot of [ATP] vs. kobs was used to derive the values of K1 and k+2 (using Origin software version 6.0), as defined in Fig. 1 and Eqn 3.
(§5) The values of –Ea/R or or ΔH°/R were derived from the slopes.

In experiment [2] the target is T1, actin.MassS1 (bovine masseter myosin S1 bound to pyrene-actin) (Bos taurus, UniProt Q9BE39).
T1 construct: from tissue; host or cells: bovine masseter muscle (myosin); rabbit muscle (actin)
In words: ATP-induced dissociation of pyr.actin.S1, stopped flow, pyrene fluorescence (slow, masseter). The format is biochemical. As to conditions: for kobs of ATP-induced dissociation: 25 µM ATP; for activation energy (Ea) of K1k+2: Mass. On the set-up: reduction of amplitude of the dissociation reaction in the presence of phosphate / increase of activation energy by phosphate / activation energy (Ea) of K1k+2: dose or concentration left out as unconfirmed. As for the experimental part:
as §1, §2, §3
The ATP-induced dissociation rate of actin.S1 was measured in the stopped flow by mixing a fixed concentration of pyr.actin.S1 complex ([…]) with excess ATP and monitoring fluorescence transients from the pyrene-labeled actin [excitation at 365 nm, emission through a KV389 nm cutoff filter (Schott, Mainz, Germany)]. Details of the kinetic analysis are given under Data Fitting and Interpretation Approach.
as §4, §5

A further experiment deals with T2, actin.MassS1 (Bos taurus, UniProt Q9BE39).
T2 construct: from tissue; host or cells: bovine masseter muscle (myosin); rabbit muscle (actin)
The experiment in a line: ADP release rate constant (k-AD), ADP displacement by excess ATP. As to conditions: […] mM Pi. Type of experiment: biochemical, bovine. On the set-up: effect of Pi on kobs of ADP release / increase in kobs of ADP release in the presence of phosphate / activation energy (Ea) of k−AD (ADP release): dose or concentration left out as unconfirmed. The procedure: Two types of myosins were studied which are known to differ in their dissociation constant for nucleotides ([5], [51]). The rate constant for the release of ADP (k−ADP) is relatively slow for masseter S1 and can easily be measured in an ADP displacement experiment. This step is very fast for a fast muscle isoform and too fast to measure by current equipment. Briefly, actin.^MassS1 saturated with 75 µM of ADP (A.M.D complex) was mixed with a large excess of ATP (8 mM) in the stopped flow. Then the kobs values, fitted to a single exponential equation (Eqn 1) defined the rate constant by which ADP is released by the ternary A.M.D complex (k−AD).
The temperature dependence of the above studied biochemical steps K1k+2, KADP, KPi, and KADP+Pi data were plotted as the natural logarithm of the measured parameter against the reciprocal of temperature in degrees Kelvin (1/T °K) and fitted with linear regression using the Arrhenius (rate constants) or Van’t Hoff (equilibrium constants) equations(7)) lnK1k+2=ln(A)−Ea/RT (8)) lnKeq=ΔS°/R−ΔH°/RT where Ea stands for activation energy, R is the gas constant, and A is a preexponential factor. The values of –Ea/R or or ΔH°/R were derived from the slopes.

On to `Nc1ncnc2c1ncn2[C@@H]1O[C@H](COP(=O)(O)OP(=O)(O)OP(=O)(O)O)[C@@H](O)[C@H]1O` [ATP], for which the “kobs of ATP-induced dissociation” value in experiment [1] (0.5 µM pyr-act.PsoS1, pH 7.0, 5°C) was 84.8 s⁻¹; in experiment [1] (0.5 µM pyr-act.PsoS1, pH 7.0, 25°C), 208.5 s⁻¹; in experiment [1] (0.5 µM pyr-act.PsoS1, pH 7.0, 35°C) it was 296.9 s⁻¹; in experiment [1] (0.5 µM pyr-act.PsoS1, pH 7.0, 43°C), 374.4 s⁻¹; in experiment [1] (0.5 µM pyr-act.PsoS1, pH 7.0, […]°C) it was 136.2 s⁻¹; in experiment [1] (zero ADP, 20°C, pH 7.0), 87.7 s⁻¹. Besides, the “kobs of ATP-induced dissociation” value in experiment [2] (0.5 µM pyrAct.MassS1, pH 7.0, 5°C) was 26.7 s⁻¹; in experiment [2] (0.5 µM pyrAct.MassS1, pH 7.0, 25°C), 46.7 s⁻¹; in experiment [2] (0.5 µM pyrAct.MassS1, pH 7.0, 35°C), 64.9 s⁻¹; in experiment [2] (0.5 µM pyrAct.MassS1, pH 7.0, […]°C), 36.1 s⁻¹; in experiment [2] (zero ADP, 20°C, pH 7.0), 37.5 s⁻¹. For the same compound, the “activation energy (Ea) of K1k+2” value was 9.37 ± 0.382 kcal/mol in experiment [1] (pH 6.2, + 30 mM Pi); 7 ± 0.19 kcal/mol in experiment [1] (pH 6.2, no Pi, 5–43°C); 9.01 ± 0.287 kcal/mol in experiment [1] (pH 7.0, + 30 mM Pi); 6.76 ± 0.19 kcal/mol in experiment [1] (pH 7.0, no Pi, 5–43°C); 7.34 ± 0.17 kcal/mol in experiment [2] (pH 6.2, + […] mM Pi); 5.69 ± 0.263 kcal/mol in experiment [2] (pH 6.2, no Pi, 5–43°C). The “activation energy (Ea) of K1k+2” value in experiment [2] (pH 7.0, + […] mM Pi) worked out at 7.15 ± 0.263 kcal/mol; in experiment [2] (pH 7.0, no Pi, 5–43°C), 6.14 ± 0.335 kcal/mol. Also, the “activation energy of the dissociation rate constant” value in experiment [1] (psoas, in the presence of phosphate, irrespective of pH) is 9.08 ± 0.24 kcal/mol; in experiment [2] (masseter, in the presence of phosphate, irrespective of pH) it was 7.17 ± 0.24 kcal/mol.
Take `O=P(O)(O)O` [Pi, inorganic phosphate]: the “increase in kobs of ADP release in the presence of phosphate” value at actin.MassS1 (pH 6.2) is listed as 30–50%. On actin.MassS1 (pH 7.0), the “effect of Pi on kobs of ADP release” value is listed as “little effect”. For the same compound, the “reduction of amplitude of the dissociation reaction in the presence of phosphate” value was 50% in experiment [1] (PsoS1, 30 mM Pi) and 50% in experiment [2] (MassS1, […] mM Pi). Besides, the “increase of activation energy by phosphate” value is recorded as “about 10 kJ/mol” in experiment [1] (PsoS1, both pH values, 30 mM Pi vs no Pi) and “about 5 kJ/mol” in experiment [2] (masseter, […] mM Pi vs no Pi).
